What was measured:
Assay in all cases: KINOMEscan competition binding
Settings in all cases: compound 10.0 µM
[1] = biological target: BMPR1A (human) (UniProt P36894)
[2] = biological target: PIM1 (human) (UniProt P11309)
[3] = biological target: CHUK (human) (UniProt O15111)
[4] = biological target: ACVR1 (human) (UniProt Q04771)
[5] = biological target: AKT2 (human) (UniProt P31751)
[6] = biological target: FLT3 (human) (UniProt P36888)
[7] = biological target: PAK3 (human) (UniProt O75914)
[8] = biological target: GSK3B (human) (UniProt P49841)
[9] = biological target: GAK (human) (UniProt O14976)
[10] = biological target: PRKCE (human) (UniProt Q02156)
[11] = biological target: INSR (human) (UniProt P06213)
[12] = biological target: MST4 (human) (UniProt Q9P289)
[13] = biological target: NUAK1 (human) (UniProt O60285)
[14] = biological target: CDK5 (human) (UniProt Q00535)
[15] = biological target: FGFR1 (human) (UniProt P11362)
[16] = biological target: ACVR2A (human) (UniProt P27037)
[17] = biological target: ALK (human) (UniProt Q9UM73)
[18] = biological target: ACVR1B (human) (UniProt P36896)
[19] = biological target: PLK4 (human) (UniProt O00444)
[20] = biological target: PRKCH (human) (UniProt P24723)
[21] = biological target: PRKD3 (human) (UniProt O94806)
[22] = biological target: RPS6KA2 KD1 (human) (UniProt Q15349)
[23] = biological target: RIPK4 (human) (UniProt P57078)
[24] = biological target: AURKB (human) (UniProt Q96GD4)
[25] = biological target: PLK3 (human) (UniProt Q9H4B4)
[26] = biological target: SIK1 (human) (UniProt P57059)
[27] = biological target: PAK4 (human) (UniProt O96013)
[28] = biological target: DMPK (human) (UniProt Q09013)
[29] = biological target: LATS2 (human) (UniProt Q9NRM7)
[30] = biological target: TNIK (human) (UniProt Q9UKE5)
[31] = biological target: CAMKK2 (human) (UniProt Q96RR4)
[32] = biological target: JAK1 JH1 catalytic (human) (UniProt P23458)
[33] = biological target: MAP3K5 (human) (UniProt Q99683)

TNIK (human), sequence (Q9UKE5 whole entry, looked up): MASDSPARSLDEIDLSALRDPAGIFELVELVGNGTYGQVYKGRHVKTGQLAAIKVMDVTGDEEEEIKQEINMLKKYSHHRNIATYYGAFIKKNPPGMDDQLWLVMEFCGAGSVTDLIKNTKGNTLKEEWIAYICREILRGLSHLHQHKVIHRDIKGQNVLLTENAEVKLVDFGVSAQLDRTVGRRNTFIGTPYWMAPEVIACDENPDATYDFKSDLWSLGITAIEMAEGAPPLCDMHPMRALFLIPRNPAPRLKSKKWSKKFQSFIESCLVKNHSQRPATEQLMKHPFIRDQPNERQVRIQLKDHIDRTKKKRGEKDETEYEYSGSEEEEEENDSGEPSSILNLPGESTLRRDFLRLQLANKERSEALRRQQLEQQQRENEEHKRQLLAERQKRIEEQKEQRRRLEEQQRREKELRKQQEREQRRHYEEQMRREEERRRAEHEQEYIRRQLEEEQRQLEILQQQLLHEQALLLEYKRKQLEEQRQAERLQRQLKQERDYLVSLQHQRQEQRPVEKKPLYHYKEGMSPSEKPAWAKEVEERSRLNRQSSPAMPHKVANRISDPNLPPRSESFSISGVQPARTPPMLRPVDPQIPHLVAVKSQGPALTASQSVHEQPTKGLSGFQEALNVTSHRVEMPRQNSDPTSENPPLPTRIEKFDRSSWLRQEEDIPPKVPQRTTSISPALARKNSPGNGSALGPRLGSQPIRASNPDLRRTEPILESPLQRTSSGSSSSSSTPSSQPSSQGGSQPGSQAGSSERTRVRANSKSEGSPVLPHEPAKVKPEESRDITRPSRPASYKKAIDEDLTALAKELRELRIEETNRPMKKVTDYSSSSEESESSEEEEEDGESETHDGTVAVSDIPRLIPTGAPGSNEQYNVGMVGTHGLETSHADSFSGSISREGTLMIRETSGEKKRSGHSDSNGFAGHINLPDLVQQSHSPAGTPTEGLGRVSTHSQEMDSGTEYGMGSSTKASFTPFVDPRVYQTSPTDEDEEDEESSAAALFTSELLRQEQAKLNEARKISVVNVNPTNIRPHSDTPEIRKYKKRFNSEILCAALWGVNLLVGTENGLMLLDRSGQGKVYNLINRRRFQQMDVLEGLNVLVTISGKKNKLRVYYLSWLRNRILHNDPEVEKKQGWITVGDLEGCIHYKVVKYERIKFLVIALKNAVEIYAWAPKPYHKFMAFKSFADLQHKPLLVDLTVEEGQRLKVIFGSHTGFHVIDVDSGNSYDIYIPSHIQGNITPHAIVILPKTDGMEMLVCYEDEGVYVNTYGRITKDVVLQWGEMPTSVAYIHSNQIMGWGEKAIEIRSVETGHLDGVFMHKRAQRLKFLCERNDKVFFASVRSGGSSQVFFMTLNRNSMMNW
PRKCH (human), sequence (P24723 whole entry, looked up): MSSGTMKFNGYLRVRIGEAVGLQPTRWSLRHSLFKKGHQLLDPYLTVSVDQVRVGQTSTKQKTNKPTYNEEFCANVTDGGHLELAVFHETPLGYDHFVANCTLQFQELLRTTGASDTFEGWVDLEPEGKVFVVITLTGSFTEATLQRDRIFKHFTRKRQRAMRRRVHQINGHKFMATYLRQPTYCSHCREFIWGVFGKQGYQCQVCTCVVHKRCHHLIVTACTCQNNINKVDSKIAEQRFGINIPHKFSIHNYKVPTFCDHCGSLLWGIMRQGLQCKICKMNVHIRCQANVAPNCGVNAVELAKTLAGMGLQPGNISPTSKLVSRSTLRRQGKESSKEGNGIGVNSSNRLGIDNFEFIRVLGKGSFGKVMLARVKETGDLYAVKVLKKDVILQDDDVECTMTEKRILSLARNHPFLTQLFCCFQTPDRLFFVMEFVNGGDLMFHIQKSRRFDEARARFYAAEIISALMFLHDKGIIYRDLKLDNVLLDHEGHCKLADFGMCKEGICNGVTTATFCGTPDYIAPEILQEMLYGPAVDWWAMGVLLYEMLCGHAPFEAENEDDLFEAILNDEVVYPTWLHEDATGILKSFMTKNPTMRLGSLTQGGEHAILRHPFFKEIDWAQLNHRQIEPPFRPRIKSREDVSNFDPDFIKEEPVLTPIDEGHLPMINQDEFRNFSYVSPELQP
CDK5 (human), sequence (Q00535 whole entry, looked up): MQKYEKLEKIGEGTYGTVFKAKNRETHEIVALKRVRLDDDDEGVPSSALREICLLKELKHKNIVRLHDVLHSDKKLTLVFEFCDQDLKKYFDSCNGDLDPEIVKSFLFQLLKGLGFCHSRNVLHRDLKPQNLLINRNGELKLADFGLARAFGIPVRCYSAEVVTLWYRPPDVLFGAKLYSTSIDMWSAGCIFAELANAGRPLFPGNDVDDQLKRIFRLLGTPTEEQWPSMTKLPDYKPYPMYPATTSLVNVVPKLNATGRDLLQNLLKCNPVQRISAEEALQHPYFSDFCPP
ACVR1B (human), sequence (P36896 whole entry, looked up): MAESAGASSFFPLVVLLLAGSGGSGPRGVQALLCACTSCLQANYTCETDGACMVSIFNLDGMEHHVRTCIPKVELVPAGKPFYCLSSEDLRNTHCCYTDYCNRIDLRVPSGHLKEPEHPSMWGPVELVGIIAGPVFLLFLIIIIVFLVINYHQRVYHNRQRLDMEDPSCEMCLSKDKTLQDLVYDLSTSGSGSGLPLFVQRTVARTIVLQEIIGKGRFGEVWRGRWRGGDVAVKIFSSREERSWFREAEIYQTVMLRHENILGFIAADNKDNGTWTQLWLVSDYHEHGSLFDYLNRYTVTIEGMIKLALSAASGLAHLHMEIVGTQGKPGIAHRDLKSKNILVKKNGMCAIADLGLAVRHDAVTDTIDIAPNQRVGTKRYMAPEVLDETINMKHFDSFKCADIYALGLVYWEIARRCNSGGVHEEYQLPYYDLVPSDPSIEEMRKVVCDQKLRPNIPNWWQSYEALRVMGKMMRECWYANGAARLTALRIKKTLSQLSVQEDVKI
AURKB (human), sequence (Q96GD4 whole entry, looked up): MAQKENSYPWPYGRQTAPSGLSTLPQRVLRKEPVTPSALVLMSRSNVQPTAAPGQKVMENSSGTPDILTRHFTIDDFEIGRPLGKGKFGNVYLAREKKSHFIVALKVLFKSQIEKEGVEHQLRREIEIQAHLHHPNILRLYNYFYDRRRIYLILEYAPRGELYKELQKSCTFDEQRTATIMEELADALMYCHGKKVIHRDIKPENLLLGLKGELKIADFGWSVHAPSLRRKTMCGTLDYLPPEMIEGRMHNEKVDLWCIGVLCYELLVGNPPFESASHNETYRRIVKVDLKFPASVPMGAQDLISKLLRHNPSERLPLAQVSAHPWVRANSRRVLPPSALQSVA
ALK (human), sequence (Q9UM73 whole entry, looked up): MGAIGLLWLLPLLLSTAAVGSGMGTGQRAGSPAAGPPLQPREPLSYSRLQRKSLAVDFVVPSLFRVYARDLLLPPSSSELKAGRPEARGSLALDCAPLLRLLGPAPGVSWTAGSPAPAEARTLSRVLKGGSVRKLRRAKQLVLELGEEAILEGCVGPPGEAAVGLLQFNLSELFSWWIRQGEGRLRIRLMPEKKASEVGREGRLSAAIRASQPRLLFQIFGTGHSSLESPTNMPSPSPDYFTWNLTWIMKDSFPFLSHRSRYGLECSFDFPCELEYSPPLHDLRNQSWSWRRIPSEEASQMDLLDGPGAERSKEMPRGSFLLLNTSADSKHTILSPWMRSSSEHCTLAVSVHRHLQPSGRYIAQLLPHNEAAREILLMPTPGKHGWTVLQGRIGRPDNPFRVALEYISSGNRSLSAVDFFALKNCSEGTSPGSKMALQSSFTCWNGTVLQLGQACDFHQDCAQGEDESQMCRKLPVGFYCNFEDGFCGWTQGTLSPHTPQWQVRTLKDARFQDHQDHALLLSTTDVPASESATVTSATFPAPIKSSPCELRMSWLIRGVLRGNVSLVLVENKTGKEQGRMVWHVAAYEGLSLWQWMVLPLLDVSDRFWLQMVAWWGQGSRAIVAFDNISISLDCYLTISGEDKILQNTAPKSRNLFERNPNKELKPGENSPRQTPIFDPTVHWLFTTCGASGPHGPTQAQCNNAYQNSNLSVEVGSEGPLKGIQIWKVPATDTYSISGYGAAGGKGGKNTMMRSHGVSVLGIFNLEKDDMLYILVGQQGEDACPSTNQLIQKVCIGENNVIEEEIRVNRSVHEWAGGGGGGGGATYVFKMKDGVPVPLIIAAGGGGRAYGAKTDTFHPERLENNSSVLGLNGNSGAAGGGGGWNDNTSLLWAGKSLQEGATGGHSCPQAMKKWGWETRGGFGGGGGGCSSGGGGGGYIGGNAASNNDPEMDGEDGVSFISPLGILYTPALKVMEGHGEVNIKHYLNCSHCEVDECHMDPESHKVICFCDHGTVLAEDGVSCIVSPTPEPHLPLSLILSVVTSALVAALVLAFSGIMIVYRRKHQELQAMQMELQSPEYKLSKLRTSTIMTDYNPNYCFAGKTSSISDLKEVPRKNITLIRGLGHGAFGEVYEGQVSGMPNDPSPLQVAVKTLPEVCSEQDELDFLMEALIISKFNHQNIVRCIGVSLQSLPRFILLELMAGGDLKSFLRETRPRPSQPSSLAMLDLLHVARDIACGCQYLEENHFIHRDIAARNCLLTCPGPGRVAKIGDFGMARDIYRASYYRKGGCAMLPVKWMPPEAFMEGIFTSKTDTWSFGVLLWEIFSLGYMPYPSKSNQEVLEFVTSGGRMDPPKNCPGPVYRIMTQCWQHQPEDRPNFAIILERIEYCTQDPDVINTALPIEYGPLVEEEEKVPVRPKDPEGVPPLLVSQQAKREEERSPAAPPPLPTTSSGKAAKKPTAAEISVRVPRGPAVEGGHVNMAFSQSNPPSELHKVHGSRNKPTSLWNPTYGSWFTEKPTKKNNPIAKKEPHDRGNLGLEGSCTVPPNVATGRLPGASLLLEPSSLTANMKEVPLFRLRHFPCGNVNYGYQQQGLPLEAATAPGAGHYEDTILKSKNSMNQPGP

Row | Compound | kinase still bound, per cent of control [2] | kinase still bound, per cent of control [4] | kinase still bound, per cent of control [6] | kinase still bound, per cent of control [7] | kinase still bound, per cent of control [8] | kinase still bound, per cent of control [9] | kinase still bound, per cent of control [10] | kinase still bound, per cent of control [12] | kinase still bound, per cent of control [13] | kinase still bound, per cent of control [15] | kinase still bound, per cent of control [16] | kinase still bound, per cent of control [17] | kinase still bound, per cent of control [18] | kinase still bound, per cent of control [19] | kinase still bound, per cent of control [20] | kinase still bound, per cent of control [21] | kinase still bound, per cent of control [22] | kinase still bound, per cent of control [24] | kinase still bound, per cent of control [25] | kinase still bound, per cent of control [26] | further results
1 | C=CC(=O)Nc1ccc(CN(C(=O)Nc2c(Cl)c(OC)cc(OC)c2Cl)c2cc(Nc3ccc(N4CCN(C)CC4)cc3)ncn2)cc1 | 100% | 100% | 6% | 100% | 100% | 100% | 100% | 100% | 100% | 2.2% | 100% | 100% | 100% | 100% | 100% | 100% | 100% | 100% | 100% | 31% | kinase still bound, per cent of control [1]: 100%; kinase still bound, per cent of control [3]: 100%; kinase still bound, per cent of control [5]: 100%; kinase still bound, per cent of control [11]: 24%; kinase still bound, per cent of control [14]: 100%; kinase still bound, per cent of control [23]: 100%; kinase still bound, per cent of control [27]: 100%; kinase still bound, per cent of control [28]: 100%; kinase still bound, per cent of control [29]: 100%; kinase still bound, per cent of control [30]: 100%; kinase still bound, per cent of control [31]: 100%; kinase still bound, per cent of control [32]: 100%; kinase still bound, per cent of control [33]: 100%
2 | CCN(CC)CCCCNc1ncc2cc(-c3cc(OC)cc(OC)c3)c(NC(=O)NC(C)(C)C)nc2n1 | 100% | 100% | 100% | 100% | 100% | 100% | 100% | 100% | 100% | 0.4% | 100% | 100% | 100% | 100% | 100% | 100% | 100% | 100% | 100% | 100% | kinase still bound, per cent of control [5]: 100%; kinase still bound, per cent of control [14]: 100%; kinase still bound, per cent of control [27]: 100%; kinase still bound, per cent of control [28]: 100%; kinase still bound, per cent of control [29]: 100%; kinase still bound, per cent of control [30]: 100%; kinase still bound, per cent of control [31]: 100%; kinase still bound, per cent of control [33]: 100%
3 | Cc1n[nH]c2ccc(-c3cncc(OC[C@@H](N)Cc4c[nH]c5ccccc45)c3)cc12 | 0.4% | 100% | 4.5% | 100% | 1% | 8.1% | 0% | 30% | 100% | 100% | 100% | 100% | 100% | 100% | 1.4% | 1.6% | 29% | 100% | 100% | 100% | kinase still bound, per cent of control [1]: 100%; kinase still bound, per cent of control [3]: 1%; kinase still bound, per cent of control [11]: 100%; kinase still bound, per cent of control [23]: 100%; kinase still bound, per cent of control [27]: 13%; kinase still bound, per cent of control [28]: 0.8%; kinase still bound, per cent of control [29]: 0%; kinase still bound, per cent of control [30]: 3.2%; kinase still bound, per cent of control [31]: 2%; kinase still bound, per cent of control [32]: 100%; kinase still bound, per cent of control [33]: 100%
4 | CNC(=O)c1ccc(Nc2cc(Nc3ccccc3S(=O)(=O)C(C)C)c3cc[nH]c3n2)nc1 | 100% | 100% | 2.4% | 1% | 100% | 2.5% | 18% | 19% | 0.95% | 11% | 100% | 1.8% | 100% | 4.5% | 100% | 100% | 1.8% | 0.7% | 100% | 11% | kinase still bound, per cent of control [1]: 100%; kinase still bound, per cent of control [3]: 100%; kinase still bound, per cent of control [5]: 100%; kinase still bound, per cent of control [11]: 0.4%; kinase still bound, per cent of control [14]: 28%; kinase still bound, per cent of control [23]: 100%; kinase still bound, per cent of control [27]: 18%; kinase still bound, per cent of control [28]: 10%; kinase still bound, per cent of control [29]: 100%; kinase still bound, per cent of control [30]: 19%; kinase still bound, per cent of control [31]: 100%; kinase still bound, per cent of control [32]: 2%; kinase still bound, per cent of control [33]: 100%
